Assay results taken from patent US6015877A, “Compounds for inhibition of proteolysis” (President and Fellows of Harvard College, priority 1996, dated 2000).
Values joined by “and” are separate entries in the source; they are usually repeats but may differ in a detail not shown here. Equal values may be shown once. “Also recorded” adds a separate entry of the source. *1 amine or outer side, *2 acyl side, *3 side chain or, on linkers, in order; H or OH if unused. Where a SMILES comes first, the peptide text is derived from it. CO = O=C([*:1])[*:2]

How the values were obtained:
[1] = target: T1, cysteine protease apopain (Homo sapiens, UniProt P42574); settings: cited from earlier work
T1 sequence (P42574 29-175 limits assumed): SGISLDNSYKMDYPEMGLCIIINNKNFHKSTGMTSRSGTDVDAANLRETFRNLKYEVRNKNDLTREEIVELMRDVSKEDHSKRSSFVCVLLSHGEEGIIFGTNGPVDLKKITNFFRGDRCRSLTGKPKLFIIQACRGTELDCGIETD
T1 sequence (P42574 176-277 limits assumed): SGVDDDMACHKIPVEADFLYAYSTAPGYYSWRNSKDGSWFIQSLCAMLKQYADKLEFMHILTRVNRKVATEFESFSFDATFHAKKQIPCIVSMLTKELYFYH

[2] = test system: isoprenylated protein endoprotease; test: Inhibition of the isoprenylated protein endoprotease by halomethyl ketones (preincubation, 20-fold dilution, Kitz-Wilson); format: biochemical, bovine; settings: for enzyme activity (%): diluted 20-fold, control 100; for inhibition / inactivation of the endoprotease (in words): solubilized endoprotease
Procedure: A typical procedure of inhibition is given here to illustrate the details of this procedure. A CHAPSO-solubilized protein preparation (2.5 mg/mL) or a partially […] protein preparation (0.17 mg/mL) was incubated with chloromethyl ketone inhibitors at 37° C. for 30 minutes. Aliquots were removed at timed intervals and diluted with assay buffer E for the solubilized preparation of with assay buffer D for the partially purified protein preparation in 20-fold. The final protein and substrate concentrations were 0.12 mg/mL (or 8.5 μg of partially purified protein preparation per milliliter) and 2.0 μM, respectively, except as otherwise noted; the residual enzyme activity was assayed as described above. TPCK and BFC-CMK were characterized by kinetic measurements. The bimolecular rate constant Kinh /K1 and pseudo-first-order kinetic rate constant Kinh were obtained using the Kitz-Wilson method (Kitz & Wilson, 1962). According to Kitz-Wilson method, the irreversible modification of an enzyme by an active-site directed inhibitor is given by [drawing 9] where K1 =[E]·[I]/[E·I] and -d([E]+[E·I])/dt=Kinh [E·I]. [I] and [E] are inhibitor and enzyme concentrations at a certain time, respectively. Under conditions here [I]>>[Eo ], which is the enzyme concentration at time zero, [I] is constant. Under conditions where the enzyme-inhibitor solution is extensively diluted before the assay, a simplified equation 2 can be obtained as follows: […]
To further establish the specificity of the inactivation process, several commercially available haloketones were studies as putative inactivators of the endoprotease. The structures of these analogs are shown and their activities are shown in Table V. In these studies, the solubilized protein material was preincubated with a chloromethyl ketone inhibitor at 284 μM (unless otherwise noted) for 30 minutes; then 2.5-μL aliquots of the incubated solution were taken and diluted 20-fold for assay of the residual enzyme activity. […] Save for the dipeptide derivatives (ZGGFCMK and ZAPFCMK) derived from TPCK, the other halomethyl ketones tested are virtually inert.
FIG. 16(A) Time-dependent inhibition. 16B Kitz-Wilson plot (the upper panel) for the inhibition of the isoprenylated protein endoprotease by TPCK. The inhibition studies were carried out at 37° C. using the solubilized endoprotease preparation. Aliquote of the inhibitor-enzyme solution were taken at interval times and diluted by a factor of 20, and the enzyme activity was assayed as described in Methods. (B) (the lower panel) the concentration-dependent inhibition of the endoprotease by TPCK. The inhibition studies were carried out at 37° C. The crude CHAPSO-solubilized endoprotease preparations (0.12 mg/mL) were preincubated for 60 min in 50 μL of buffer E in the presence of 284 μM TPCK or TLCK with 6% DMSO and 2% 2-propanol. After the incubation, the reaction solution was diluted by a factor of 20, and the remaining enzyme activity of the inhibitor-enzyme solution was assayed as described in Methods. Data were represented in mean from duplicate runs.

[3] = test system: isoprenylated protein endoprotease; test: Inhibition of the solubilized / partially purified enzyme by non-halomethyl ketone inhibitors; format: biochemical, bovine; settings: for enzyme activity (%) detergent extract / enzyme activity (%) partially purified: control 100
[4] = target: T2, cysteine protease ICE (interleukin-1β converting enzyme) (Homo sapiens, UniProt P29466); settings: cited from earlier work
T2 sequence (P29466 120-297 limits assumed): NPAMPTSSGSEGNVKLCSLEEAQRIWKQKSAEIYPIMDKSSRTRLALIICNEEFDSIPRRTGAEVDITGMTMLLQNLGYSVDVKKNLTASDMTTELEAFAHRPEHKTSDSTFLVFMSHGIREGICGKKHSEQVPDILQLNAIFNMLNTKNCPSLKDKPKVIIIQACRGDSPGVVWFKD
T2 sequence (P29466 317-404 limits assumed): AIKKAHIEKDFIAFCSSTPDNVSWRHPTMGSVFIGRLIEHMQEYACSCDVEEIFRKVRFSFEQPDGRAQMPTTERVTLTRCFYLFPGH

[5] = test system: membrane-bound isoprenylated protein endoprotease; settings: 0.6 μM; cited from earlier work
[6] = test system: protease of bovine liver microsomal membranes (isoprenylated protein endoprotease); test: Proteolysis of N-[3H]acetyl isoprenylated peptide substrates by calf liver microsomal membranes (N-[3H]-AFC formation, HPLC); settings: for activity as substrate (Table 1, words): 10 mM, prolonged incubation time (16 hours), detection limit 1.13 pmol/min/mg
[7] = 284 μM inhibitor, solubilized protein preincubated 30 minutes
[8] = Kitz-Wilson plot using the partially purified enzyme preparation
[9] = calf liver microsomal membranes
[10] = Table 1, same enzyme preparation, average of two determinations ±S.D.

For “Nα-tosyl-L-lysine chloromethyl ketone [TLCK]”, the “inhibition of apopain (in words)” value [1] is listed as “not”, the “enzyme activity (%)” value ([2]; 1000 μM inhibitor, solubilized protein preincubated) is listed as 94 ± 15% and the “inhibition / inactivation of the endoprotease (in words)” value (“inhibition / inactivation” below) [2] is listed as “did not inhibit the enzyme activity; also recorded: does not inhibit the enzyme activity”.

In the case of bis(p-nitro-phenyl)phosphate [BNPP], the “inhibition of the endoprotease (in words)” value ([3]; 1 mM) is reported as “not inhibited” and the “enzyme activity (%) detergent extract” value ([3]; inhibitor 1 mM) is reported as 100 ± 8%.

For CC(C)[C@H](NC(=O)[C@H](CCCNC(=N)N)NC(=O)N[C@@H](Cc1ccccc1)C(=O)O)C(=O)N[C@H](C=O)CCCNC(=N)N [antipain] ({Phe-CO}-Arg-Val-Arg-aldehyde), the “inhibition of ICE (in words)” value [4] is listed as “insensitive”.

With CC(C)=CCC/C(C)=C/CC/C(C)=C/CSC[C@H](NC(=O)OC(C)(C)C)C(=O)CCl (stereo in doubt) [BFCCMK, N-Boc-S-all-trans-Farnesyl-L-cysteine Chloromethyl Ketone] the “enzyme activity (%)” value [2, 7] was 27 ± 2%, the “Kinh (s^-1)” value [2, 8] was “(5.9 ± 0.4) × 10^-3 s^-1” and the “Kinh /K1” value [2, 8] was 19.4 M⁻¹ s⁻¹ and 19.4 ± 1 M⁻¹ s⁻¹. The Ki ([2]; Kitz-Wilson plot using the partially purified enzyme preparation, read-out: K1) was 30 µM and ~30 µM, the “increase of the second-order rate constant” value ([2]; compared with TPCK) was 15 fold and the “inhibition / inactivation” value [2] was “good inhibitors; also recorded: quite a potent inactivator of the endoprotease; also recorded: most potent inactivator of the endoprotease; also recorded: much more potent inactivator of the endoprotease than TPCK”.

For aprotinin, the “inhibition of the endoprotease (in words)” value [5] is given as “not inhibited”.

With CC(C)C[C@H](NC(=O)[C@@H](NC(=O)N[C@@H](Cc1ccccc1)C(=O)O)[C@@H]1CCN=C(N)N1)C(=O)N[C@H](C=O)Cc1ccccc1 [Chymostatin] the “inhibition of the endoprotease (in words)” value ([3]; 0.33 mM) was “not inhibited”, the “enzyme activity (%) detergent extract” value ([3]; inhibitor 0.33 mM) was 104 ± 8% and the “enzyme activity (%) partially purified” value ([3]; inhibitor 0.33 mM) was 99 ± 1%. For the same compound, the “enzyme activity (%) partially purified” value ([3]; inhibitor 0.33 mM, listed as chymostatin) was “not inhibited”.

With O=S(=O)(F)Cc1ccccc1 [PMSF, phenylmethanesulfonyl fluoride] the “inhibition of the endoprotease (in words)” value ([3]; 1 mM) was “not inhibited” and the “enzyme activity (%) detergent extract” value ([3]; inhibitor 1 mM) was 93 ± 3%.

With “N-[^3 H]-Acetyl-S-all-trans-geranylgeranyl-D-cys-L-Val-L-Ile [AGGC--Val--Ile (2) D--L--L]” the “activity as substrate (Table 1, words)” value [6] was “inactive” and the “substrate activity (in words)” value [6, 9] was “no measurable protease activity”.

For OCC(O)CO [glycerol], the “effect on the solubilized enzyme's activity (in words)” value ([3]; 20%) was “Neither DTT (1-5 mM) nor glycerol (20%) affects the enzyme's activity”.

In the case of O[C@H](CS)[C@H](O)CS (racemic) [DTT, Dithiothreitol], the “effect on the solubilized enzyme's activity (in words)” value ([3]; 1-5 mM) is reported as “Neither DTT (1-5 mM) nor glycerol (20%) affects the enzyme's activity” and the “enzyme activity (%) detergent extract” value ([3]; inhibitor 5 mM) is reported as 108 ± 8%.

For “N-[^3 H]-Acetyl-S-thio-t-butyl-L-Cys-L-Val-L-Ile [t-butylthio-Cys--Val--Ile (5)]”, the “activity as substrate (Table 1, words)” value [6] was “inactive” and the “substrate activity (in words)” value [6, 9] was “Neither analog was measurably processed”.

In the case of “N-[^3 H-Acetyl-S-all-trans-geranylgeranyl-L-Cys-L-Val-L-ile [AGGC--Val--Ile (2)]”, the Km [6, 10] is reported as 4.01 ± 0.4 µM, the “Vmax” value [6, 10] is reported as 26.20 ± 0.97 pmol/min/mg and the Km [6, 9] is reported as 14.6 µM. The Vmax [6, 9] was 19.35 pmol/min/mg and the “substrate activity (in words)” value [6, 9] was “good substrates”.

In the case of “N-[^3 H]-Acetyl-L-Cys-L-Val-L-Ile [Cys--Val--Ile (4)]”, the “activity as substrate (Table 1, words)” value [6] is reported as “inactive” and the “substrate activity (in words)” value [6, 9] is reported as “Neither analog was measurably processed”.

In the case of “β-(2-naphthyl)-L-alanine chloromethyl ketone [2-Nal-Ala-CMK]”, the “enzyme activity (%)” value [2, 7] is reported as 53 ± 1% and the “inhibition / inactivation” value [2] is reported as “inhibit the endoprotease well”.
